Measured values taken from US12539292B2, “BRM targeting compounds and associated methods of use” (Arvinas Operations, Inc., priority 2018, dated 2026).
Where two headings read alike, the source gives them in different places.

Molecular target: T1, BRM (Homo sapiens, UniProt P51531)
T1 construct: In-Cell Western Screen of BRM Degradation in SW1573 Cells; endogenous in cells; host or cells: SW1573
Test: In-cell Western screen of BRM degradation in SW1573 cells (Dmax and DC50)
Format: cell-based
In short: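 After adhering overnight, cells received compound for 18-20 hours. They were then washed in cold DPBS, fixed with 4% PFA for 20 min and permeabilized for 30 min. Blocking and fluorescent secondary staining followed before imaging.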

[1] = BRM degradation, SW1573 cells, read-out: DC50
[2] = BRM degradation, SW1573 cells, when tested at the top concentration of between 0.3 and 10 μM, read-out: Dmax (%) (% degraded)
[3] = SW1573, % degraded, when tested at the top concentration of between 0.3 and 10 μM, read-out: BRM Dmax (%)

T1 sequence (P51531 whole entry): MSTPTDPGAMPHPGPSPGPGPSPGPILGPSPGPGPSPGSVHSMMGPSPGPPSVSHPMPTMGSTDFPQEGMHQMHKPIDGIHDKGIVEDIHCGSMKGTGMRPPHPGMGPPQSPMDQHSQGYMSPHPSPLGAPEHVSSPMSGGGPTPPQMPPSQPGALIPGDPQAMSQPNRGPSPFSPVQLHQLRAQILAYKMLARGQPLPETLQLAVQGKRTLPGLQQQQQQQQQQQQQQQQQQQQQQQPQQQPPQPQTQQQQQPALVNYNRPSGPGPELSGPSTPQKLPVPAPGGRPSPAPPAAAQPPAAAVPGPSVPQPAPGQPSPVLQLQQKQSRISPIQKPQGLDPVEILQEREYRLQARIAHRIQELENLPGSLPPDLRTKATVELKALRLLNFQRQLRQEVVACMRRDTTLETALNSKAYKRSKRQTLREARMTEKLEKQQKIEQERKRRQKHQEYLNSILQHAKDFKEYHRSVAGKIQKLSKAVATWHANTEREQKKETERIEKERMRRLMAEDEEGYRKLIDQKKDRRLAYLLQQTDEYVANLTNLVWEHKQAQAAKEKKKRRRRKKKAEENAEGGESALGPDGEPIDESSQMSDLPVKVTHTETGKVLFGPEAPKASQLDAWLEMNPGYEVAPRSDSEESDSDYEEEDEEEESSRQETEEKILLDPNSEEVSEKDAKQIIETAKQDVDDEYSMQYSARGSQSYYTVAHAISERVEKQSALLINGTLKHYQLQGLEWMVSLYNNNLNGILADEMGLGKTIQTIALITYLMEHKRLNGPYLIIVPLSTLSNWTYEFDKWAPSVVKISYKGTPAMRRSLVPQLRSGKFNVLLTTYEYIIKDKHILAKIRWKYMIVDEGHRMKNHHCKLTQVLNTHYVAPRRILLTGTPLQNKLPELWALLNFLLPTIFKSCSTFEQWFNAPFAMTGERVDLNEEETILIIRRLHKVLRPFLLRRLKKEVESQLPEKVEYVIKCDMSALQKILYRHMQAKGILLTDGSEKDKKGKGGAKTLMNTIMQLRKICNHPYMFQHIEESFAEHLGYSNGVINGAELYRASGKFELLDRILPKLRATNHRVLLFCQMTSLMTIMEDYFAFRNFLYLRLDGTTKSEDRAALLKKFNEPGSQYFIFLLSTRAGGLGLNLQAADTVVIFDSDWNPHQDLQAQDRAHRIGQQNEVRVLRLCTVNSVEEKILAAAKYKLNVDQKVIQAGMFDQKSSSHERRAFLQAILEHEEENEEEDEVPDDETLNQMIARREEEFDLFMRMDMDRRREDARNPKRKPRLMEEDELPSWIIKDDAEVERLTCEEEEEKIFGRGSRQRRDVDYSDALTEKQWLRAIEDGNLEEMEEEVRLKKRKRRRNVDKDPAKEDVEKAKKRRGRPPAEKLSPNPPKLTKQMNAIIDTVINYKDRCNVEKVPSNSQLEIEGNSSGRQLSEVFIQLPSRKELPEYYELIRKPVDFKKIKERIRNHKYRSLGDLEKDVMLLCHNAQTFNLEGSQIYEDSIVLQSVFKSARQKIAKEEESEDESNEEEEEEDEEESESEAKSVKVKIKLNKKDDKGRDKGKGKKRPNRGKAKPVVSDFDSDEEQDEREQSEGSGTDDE

Row | SMILES | DC50 [1] [nM] | Dmax [2] [%] | further results
1 | Cc1ncsc1-c1ccc([C@H](C)NC(=O)[C@@H]2C[C@@H](O)CN2C(=O)[C@H](c2cc(N3CCC4(CCN(C[C@H]5C[C@H](Oc6cc(N7C8CCC7CN(c7cc(-c9ccccc9O)nnc7N)C8)ccn6)C5)CC4)CC3)no2)C(C)C)cc1 [compound 647, (2S,4R)-1-((2S)-2-(3-(9-(((1r,3S)-3-((4-(3-(3-amino-6-(2-hydroxyphenyl)pyridazin-4-yl)-3,8-diazabicyclo[3.2.1]octan-8-yl)pyridin-2-yl)oxy)cyclobutyl)methyl)-3,9-diazaspiro[5.5]undecan-3-yl)isoxazol-5-yl)-3-methylbutanoyl)-4-hydroxy-N-((S)-1-(4-(4-methylthiazol-5-yl)phenyl)ethyl)pyrrolidine-2-carboxamide] | > 30 |  | 
2 | Cc1ncsc1-c1cc(F)c([C@H](C)NC(=O)[C@@H]2C[C@@H](O)CN2C(=O)[C@H](c2cc(N3CCC(CN4CCC(O[C@H]5C[C@H](Oc6cc(N7C8CCC7CN(c7cc(-c9ccccc9O)nnc7N)C8)ccn6)C5)CC4)CC3)no2)C(C)C)cc1F [compound 680, (2S,4R)-1-((2S)-2-(3-(4-((4-((1r,3r)-3-((4-(3-(3-amino-6-(2-hydroxyphenyl)pyridazin-4-yl)-3,8-diazabicyclo[3.2.1]octan-8-yl)pyridin-2-yl)oxy)cyclobutoxy)piperidin-1-yl)methyl)piperidin-1-yl)isoxazol-5-yl)-3-methylbutanoyl)-N-((S)-1-(2,5-difluoro-4-(4-methylthiazol-5-yl)phenyl)ethyl)-4-hydroxypyrrolidine-2-carboxamide] | > 30 |  | 
3 | Cc1ncsc1-c1ccc(CNC(=O)[C@@H]2C[C@@H](O)CN2C(=O)[C@@H](c2cc(OCCOCCOCCCCN3CCOC4(CCN(c5cc(-c6ccccc6O)nnc5N)CC4)C3)no2)C(C)C)cc1 [compound 37, (2S,4R)-1-((R)-2-(3-(2-(2-(4-(9-(3-amino-6-(2-hydroxyphenyl)pyridazin-4-yl)-1-oxa-4,9-diazaspiro[5.5]undecan-4-yl)butoxy)ethoxy)ethoxy)isoxazol-5-yl)-3-methylbutanoyl)-4-hydroxy-N-(4-(4-methylthiazol-5-yl)benzyl)pyrrolidine-2-carboxamide] | 2.5 to 10 | > 75 | 
4 | Cc1ncsc1-c1ccc([C@@H](CN)NC(=O)[C@@H]2C[C@@H](O)CN2C(=O)[C@@H](c2cc(OCCN3CCN(CCOc4cc(N5C6CCC5CN(c5cc(-c7ccccc7O)nnc5N)C6)ccn4)CC3)no2)C(C)C)cc1 [compound 256, (2S,4R)-N-((S)-2-amino-1-(4-(4-methylthiazol-5-yl)phenyl)ethyl)-1-((2R)-2-(3-(2-(4-(2-((4-(3-(3-amino-6-(2-hydroxyphenyl)pyridazin-4-yl)-3,8-diazabicyclo[3.2.1]octan-8-yl)pyridin-2-yl)oxy)ethyl)piperazin-1-yl)ethoxy)isoxazol-5-yl)-3-methylbutanoyl)-4-hydroxypyrrolidine-2-carboxamide] | > 30 |  | 
5 | Cc1ncsc1-c1ccc([C@H](C)NC(=O)[C@@H]2C[C@@H](O)CN2C(=O)[C@H](c2cc(OCC[C@@H]3CCN(C[C@H]4C[C@H](Oc5cc(N6C7CCC6CN(c6cc(-c8ccccc8O)nnc6N)C7)ccn5)C4)C[C@H]3C)no2)C(C)C)cc1 (racemic) [compound 545, (2S,4R)-1-((2S)-2-(3-(2-((3S,4S)-1-(((1r,3S)-3-((4-(3-(3-amino-6-(2-hydroxyphenyl)pyridazin-4-yl)-3,8-diazabicyclo[3.2.1]octan-8-yl)pyridin-2-yl)oxy)cyclobutyl)methyl)-3-methylpiperidin-4-yl)ethoxy)isoxazol-5-yl)-3-methylbutanoyl)-4-hydroxy-N-((S)-1-(4-(4-methylthiazol-5-yl)phenyl)ethyl)pyrrolidine-2-carboxamide] |  |  | Dmax (BRM degradation, SW1573 cells, Table 2D, read-out: **Dmax (%) (% degraded)): > 75%; DC50 (BRM degradation, SW1573 cells, Table 2D, read-out: *DC50): 2.5 to 10 nM
6 | Cc1ncsc1-c1ccc([C@H](C)NC(=O)[C@@H]2C[C@@H](O)CN2C(=O)[C@@H](NC(=O)Cc2ccc(N3CCN(CCO[C@H]4C[C@H](Oc5cc(N6C7CCC6CN(c6cc(-c8ccccc8O)nnc6N)C7)ccn5)C4)CC3)nc2)C(C)(C)C)cc1 [compound 58, (2S,4R)-1-((2S)-2-(2-(6-(4-(2-((1r,3r)-3-((4-(3-(3-amino-6-(2-hydroxyphenyl)pyridazin-4-yl)-3,8-diazabicyclo[3.2.1]octan-8-yl)pyridin-2-yl)oxy)cyclobutoxy)ethyl)piperazin-1-yl)pyridin-3-yl)acetamido)-3,3-dimethylbutanoyl)-4-hydroxy-N-((S)-1-(4-(4-methylthiazol-5-yl)phenyl)ethyl)pyrrolidine-2-carboxamide] | > 30 | 50 to 75 | 
7 | Cc1ncsc1-c1ccc([C@H](C)NC(=O)[C@@H]2C[C@@H](O)CN2C(=O)[C@@H](c2cc(OCCN3CCN(CCOc4cc(N5C6CCC5CN(c5cc(-c7ccccc7O)nnc5N)C6)ccn4)C[C@@H]3C)no2)C(C)C)cc1 [compound 141, (2S,4R)-1-((2R)-2-(3-(2-((2S)-4-(2-((4-(3-(3-amino-6-(2-hydroxyphenyl)pyridazin-4-yl)-3,8-diazabicyclo[3.2.1]octan-8-yl)pyridin-2-yl)oxy)ethyl)-2-methylpiperazin-1-yl)ethoxy)isoxazol-5-yl)-3-methylbutanoyl)-4-hydroxy-N-((S)-1-(4-(4-methylthiazol-5-yl)phenyl)ethyl)pyrrolidine-2-carboxamide] | < 2.5 | > 75 | 
8 | Cc1ncsc1-c1ccc([C@H](C)NC(=O)[C@@H]2C[C@@H](O)CN2C(=O)[C@@H](c2cc(OCCN(C(C)C)[C@H]3CC[C@H](O[C@H]4C[C@H](Oc5cc(N6C7CCC6CN(c6cc(-c8ccccc8O)nnc6N)C7)ccn5)C4)CC3)no2)C(C)C)cn1 [compound 505, (2S,4R)-1-((2R)-2-(3-(2-(((1R,4R)-4-((1r,3R)-3-((4-(3-(3-amino-6-(2-hydroxyphenyl)pyridazin-4-yl)-3,8-diazabicyclo[3.2.1]octan-8-yl)pyridin-2-yl)oxy)cyclobutoxy)cyclohexyl)(isopropyl)amin 0)ethoxy)isoxazol-5-yl)-3-methylbutanoyl)-4-hydroxy-N-((S)-1-(6-(4-methylthiazol-5-yl)pyridin-3-yl)ethyl)pyrrolidine-2-carboxamide] |  |  | DC50 (BRM degradation, read-out: BRM DC50): 2.5 to 10 nM; Dmax [3]: > 75%
9 | Cc1ncsc1-c1ccc([C@H](C)NC(=O)[C@@H]2C[C@@H](O)CN2C(=O)[C@H](c2cc(OCCOCCOCCCCN3CCC4(CC3)CCN(c3cc(-c5ccccc5O)nnc3N)CC4)no2)C(C)C)cc1 [compound 67, (2S,4R)-1-((S)-2-(3-(2-(2-(4-(9-(3-amino-6-(2-hydroxyphenyl)pyridazin-4-yl)-3,9-diazaspiro[5.5]undecan-3-yl)butoxy)ethoxy)ethoxy)isoxazol-5-yl)-3-methylbutanoyl)-4-hydroxy-N-((S)-1-(4-(4-methylthiazol-5-yl)phenyl)ethyl)pyrrolidine-2-carboxamide] | > 30 |  | 
10 | Cc1ncsc1-c1ccc([C@H](C)NC(=O)[C@@H]2C[C@@H](O)CN2C(=O)[C@@H](c2cc(OCCC3CCN(C(=O)[C@H]4C[C@H](CN5CCC([C@@H](C)n6cc(-c7cc(-c8ccccc8O)nnc7N)cn6)CC5)C4)CC3)no2)C(C)C)cc1 [compound 456, (2S,4R)-1-((R)-2-(3-(2-(1-((1R,3R)-3-((4-((R)-1-(4-(3-amino-6-(2-hydroxyphenyl)pyridazin-4-yl)-1H-pyrazol-1-yl)ethyl)piperidin-1-yl)methyl)cyclobutane-1-carbonyl)piperidin-4-yl)ethoxy)isoxazol-5-yl)-3-methylbutanoyl)-4-hydroxy-N-((S)-1-(4-(4-methylthiazol-5-yl)phenyl)ethyl)pyrrolidine-2-carboxamide] |  |  | DC50 (target protein degradation, read-out: BRM DC50): > 30 nM
11 | Cc1ncsc1-c1ccc([C@H](C)NC(=O)[C@@H]2C[C@@H](O)CN2C(=O)[C@@H](c2cc(OCCN3CC4CC(C3)N4CCOc3cc(N4C5CCC4CN(c4cc(-c6ccccc6O)nnc4N)C5)ccn3)no2)C(C)C)cc1 [compound 133, (2S,4R)-1-((2R)-2-(3-(2-(6-(2-((4-(3-(3-amino-6-(2-hydroxyphenyl)pyridazin-4-yl)-3,8-diazabicyclo[3.2.1]octan-8-yl)pyridin-2-yl)oxy)ethyl)-3,6-diazabicyclo[3.1.1]heptan-3-yl)ethoxy)isoxazol-5-yl)-3-methylbutanoyl)-4-hydroxy-N-((S)-1-(4-(4-methylthiazol-5-yl)phenyl)ethyl)pyrrolidine-2-carboxamide] | < 2.5 | > 75 | 
12 | Cc1ncsc1-c1ccc([C@H](C)NC(=O)[C@@H]2C[C@@H](O)CN2C(=O)[C@@H](c2cc(CCCOCCOCCOCCn3cc(-c4cc(-c5ccccc5O)nnc4N)cn3)no2)C(C)C)cc1 [compound 110, (2S,4R)-1-((R)-2-(3-(3-(2-(2-(2-(4-(3-amino-6-(2-hydroxyphenyl)pyridazin-4-yl)-1H-pyrazol-1-yl)ethoxy)ethoxy)ethoxy)propyl)isoxazol-5-yl)-3-methylbutanoyl)-4-hydroxy-N-((S)-1-(4-(4-methylthiazol-5-yl)phenyl)ethyl)pyrrolidine-2-carboxamide] | < 2.5 | > 75 | 
13 | Cc1ncsc1-c1ccc([C@H](C)NC(=O)[C@@H]2C[C@@H](O)CN2C(=O)[C@H](c2cc(OCCC3CCN([C@H]4C[C@H](CN5CCOC6(CCN(c7cc(-c8ccccc8O)nnc7N)CC6)C5)C4)CC3)no2)C(C)C)cc1 [compound 444, (2S,4R)-1-((S)-2-(3-(2-(1-((1r,3S)-3-((9-(3-amino-6-(2-hydroxyphenyl)pyridazin-4-yl)-1-oxa-4,9-diazaspiro[5.5]undecan-4-yl)methyl)cyclobutyl)piperidin-4-yl)ethoxy)isoxazol-5-yl)-3-methylbutanoyl)-4-hydroxy-N-((S)-1-(4-(4-methylthiazol-5-yl)phenyl)ethyl)pyrrolidine-2-carboxamide] |  |  | Dmax [3]: > 75%; DC50 (degradation of BRM, read-out: BRM DC50): < 2.5 nM
